Measured values published in patent US10647675B2 (priority 2015, dated 2020).
≈ marks a conversion by molar mass, not a printed value.

Tests used:
[1] = tested on: Trichophyton rubrum KD-1130; assay: Antifungal activity evaluation test: minimum inhibitory concentration (MIC), broth dilution by reference to CLSI M38-A2; type: cell-based; conditions: KD1130, read-out: MIC (T. rubrum)
How it was run: (§1)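 Broth microdilution after CLSI M38-A2: 2-fold DMSO dilution series in MOPS-buffered RPMI 1640 pH 7.0, inoculum 2×10^3 cells/mL final. Incubated 35° C for 4 days; MIC (μg/mL) is lowest concentration giving visually ≥80% growth inhibition versus growth control.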

[2] = tested on: Trichophyton mentagrophytes SM-110; assay: as above; type: cell-based; conditions: SM110, read-out: MIC (T. menta.)
How it was run: as §1

[3] = Nail permeability test through human nail using Franz cell; type: in vitro ADME; conditions: 5% in propylene glycol:ethanol (1:4), 32° C.
Protocol: Permeability through human nail was measured by the method shown below using Franz cell. • Test Preparation: A test compound was dissolved in a propylene glycol:ethanol (1:4) mixed solution at a concentration of 5% to give a test preparation. As control compounds terbinafine and amorolfine were used. • (1) Human nail (thickness 300-500 μm) was fixed using a nail adapter for Franz cell, and mounted on Franz cell. • (2) The receptor chamber of the Franz cell was filled with phosphate buffer, and placed in a thermostatic chamber at 32° C. • (3) A test preparation was applied to the aforementioned human nail at 61 μL/cm^2, after which a receptor solution was collected over days, and the concentration of the test compound in the receptor was measured by a liquid chromatography mass spectrometry method (LC/MS/MS). The cumulative amount of drug permeation (μg/cm^2) was calculated from the measured drug concentration in the receptor. A cumulative amount of drug permeation relative to the time after start of the test was plotted and the slope at final 4 time points was taken as Flux (μg/cm^2/day). The abbreviations in the Table mean the following compounds • TBF: terbinafine • AMF: amorolfine

SMILES | MIC [1] [µg/mL] | MIC [2] [µg/mL] | nail permeability (Flux) [3]
CCC(C)(C)c1ccc(CC(C)CN2C[C@@H](C)O[C@@H](C)C2)cc1 (stereo partly shown) [AMF, amorolfine, reference compound] | ≤ 0.1 | ≤ 0.1 | D (D: <0.001)
COC(=O)CN(C)c1ncc(Oc2ncccc2-c2ccccc2OC)cn1 [I-387, methyl 2-[(5-{[3-(2-methoxyphenyl)pyridin-2-yl]oxy}pyrimidin-2-yl)(methyl)amino]acetate] | ≤ 0.1 | ≤ 0.1 | 
CCOCC(C)(C)c1ccc(Oc2ncccc2-c2cccnc2OC)cc1 [I-388, 2-[4-(1-ethoxy-2-methylpropan-2-yl)phenoxy]-2′-methoxy-3,3′-bipyridine] | ≤ 0.1 | ≤ 0.1 | 
C#Cc1ccc(Oc2ncccc2-c2cccnc2OC)cc1 [I-390, 2-(4-ethynylphenoxy)-2′-methoxy-3,3′-bipyridine] | ≤ 0.1 | ≤ 0.1 | 
CCc1ccc(Oc2ncccc2-c2cnccc2OC)cc1F [I-392, 2-(4-ethyl-3-fluorophenoxy)-4′-methoxy-3,3′-bipyridine] | ≤ 0.1 | ≤ 0.1 | 
CCc1ccc(Oc2ncccc2-c2cnccc2OC)c(F)c1 [I-394, 2-(4-ethyl-2-fluorophenoxy)-4′-methoxy-3,3′-bipyridine] | ≤ 0.1 | ≤ 0.1 | 
CCOCCc1ccc(Oc2ncccc2-c2cccnc2OC)cc1 [I-396, 2-[4-(2-ethoxyethyl)phenoxy]2′-methoxy-3,3′-bipyridine] | ≤ 0.1 | ≤ 0.1 | 
COc1ncccc1-c1cccnc1Oc1ccc(CCOC(C)=O)cc1 [I-397, 4-{[(2′-methoxy)-(3,3′-bipyridin)-2-yl]oxy}phenethyl acetate] | ≤ 0.1 | ≤ 0.1 | 
COc1ncccc1-c1cccnc1Oc1ccc(CCOC(=O)N(C)C)cc1 [I-398, 4-{[(2′-methoxy-(3,3′-bipyridin)-2-yl]oxy}phenethyl dimethylcarbamate] | ≤ 0.1 | ≤ 0.1 | 
COc1ncccc1-c1cccnc1Oc1ccc(CCn2cccn2)cc1 [I-400, 2-{4-[2-(1H-pyrazol-1-yl)ethyl]phenoxy}-2′-methoxy-3,3′-bipyridine] | ≤ 0.1 | ≤ 0.1 | 
COc1ncccc1-c1cccnc1Oc1ccc(CCn2cc(C)cn2)cc1 [I-401, 2-methoxy-2′-{4-[2-(4-methyl-1H-pyrazol-1-yl)ethyl]phenoxy}-3,3′-bipyridine] | ≤ 0.1 | ≤ 0.1 | 
CCn1cc(CCc2ccc(Oc3ncccc3-c3cccnc3OC)cc2)cn1 [I-404, 2-{4-[2-(1-ethyl-1H-pyrazol-4-yl)ethyl]phenoxy}-2′-methoxy-3,3′-bipyridine] | ≤ 0.1 | ≤ 0.1 | 
C#CCCc1ccc(Oc2ncccc2-c2cccnc2OC)cc1 [I-407, 2-[4-(but-3-yn-1-yl)phenoxy]-2′-methoxy-3,3′-bipyridine] | ≤ 0.1 | ≤ 0.1 | 
COc1ncccc1-c1cccnc1Oc1ccc(CCc2cc(C)no2)cc1 [I-408, 5-(4-{[2′-methoxy-(3,3′-bipyridin)-2-yl]oxy}phenethyl)-3-methylisoxazole] | ≤ 0.1 | ≤ 0.1 | 
COC(=O)CCc1ccc(Oc2ncccc2-c2cccnc2OC)cc1 [I-409] | ≤ 0.1 | ≤ 0.1 | 
COc1ncccc1-c1cccnc1Oc1ccc(CCc2nc(C)no2)cc1 [I-411] | ≤ 0.1 | ≤ 0.1 | 
CCOCCc1ccc(Oc2ncccc2-c2cccc3ccnn23)cc1 [I-412, 7-{2-[4-(2-ethoxyethyl)phenoxy]pyridin-3-yl}pyrazolo[1,5-a]pyridine] | ≤ 0.1 | ≤ 0.1 | 
COCC(F)(F)c1ccc(Oc2ncccc2-c2cccc3ccnn23)cc1 [I-413, 7-{2-[4-(1,1-difluoro-2-methoxyethyl)phenoxy]pyridin-3-yl}pyrazolo[1,5-a]pyridine] | ≤ 0.1 | ≤ 0.1 | 
CCOC(=O)c1ccc(Oc2ncccc2-c2cnccc2Cl)cc1 [I-414] | ≤ 0.1 | ≤ 0.1 | 
CCOC(=O)c1ccc(Oc2ncccc2-c2cnccc2OCC)cc1 [I-415, ethyl 4-{[4′-ethoxy-(3,3′-bipyridin)-2-yl]oxy}benzoate] | ≤ 0.1 | ≤ 0.1 | 

SMILES | MIC [1] [µg/mL] | MIC [2] [µg/mL] | nail permeability (Flux) [3]
CCOC(=O)c1ccc(Oc2ncccc2-c2cnccc2CC)cc1 [I-416] | ≤ 0.1 | ≤ 0.1 | 
COc1ccncc1-c1cccnc1Oc1ccc(C(=O)OC(C)C)cc1 [I-418] | ≤ 0.1 | ≤ 0.1 | 
CCOC(=O)c1ccc(Oc2ncccc2-c2cnccc2C)cc1 [I-419] | ≤ 0.1 | ≤ 0.1 | 
Cc1noc(-c2ccc(Oc3ncccc3-c3cnccc3C)cc2)n1 [I-421] | ≤ 0.1 | ≤ 0.1 | 
CC(=O)c1ccc(Oc2ncccc2-c2cnccc2C)cc1 [I-422] | 0.2 to 0.78 (≈ 0.657 to 2.56 µM) | 0.2 to 0.78 (≈ 0.657 to 2.56 µM) | 
Cc1ncc(-c2ccc(Oc3ncccc3-c3cnccc3C)cc2)o1 [I-423] | ≤ 0.1 | ≤ 0.1 | 
CC(=O)CC(=O)c1ccc(Oc2ncccc2-c2cnccc2C)cc1 [I-424] | ≤ 0.1 | 0.2 to 0.78 (≈ 0.577 to 2.25 µM) | 
Cc1cc(-c2ccc(Oc3ncccc3-c3cnccc3C)cc2)on1 [I-425] | ≤ 0.1 | ≤ 0.1 | 
Cc1ccncc1-c1cccnc1Oc1ccc(I)cc1 [I-426] | ≤ 0.1 | ≤ 0.1 | 
Cc1cnc(-c2ccc(Oc3ncccc3-c3cnccc3C)cc2)s1 [I-428] | ≤ 0.1 | ≤ 0.1 | 
Cc1ccncc1-c1cccnc1Oc1ccc(-c2ncccn2)cc1 [I-429] | ≤ 0.1 | ≤ 0.1 | 
Cc1ccncc1-c1cccnc1Oc1ccc(-c2ccncc2)cc1 [I-430] | ≤ 0.1 | ≤ 0.1 | 
Cc1ccncc1-c1cccnc1Oc1ccc(-c2ccccn2)cc1 [I-431] | ≤ 0.1 | ≤ 0.1 | 
Cc1cnn(-c2ccc(Oc3ncccc3-c3cnccc3C)cc2)c1 [I-432] | ≤ 0.1 | ≤ 0.1 | 
Cc1ccncc1-c1cccnc1Oc1ccc(-n2cccn2)cc1 [I-433] | ≤ 0.1 | ≤ 0.1 | 
COc1ncccc1-c1cccnc1Oc1ccc(C(F)(F)CO)cc1 [I-434] | 1.56 to 6.25 (≈ 4.35 to 17.4 µM) | 0.2 to 0.78 (≈ 0.558 to 2.18 µM) | 
COc1ncccc1-c1cccnc1Sc1ccc(C(F)(F)F)cc1 [I-435] | 0.2 to 0.78 (≈ 0.552 to 2.15 µM) | 0.2 to 0.78 (≈ 0.552 to 2.15 µM) | 
COc1ccccc1-c1cccnc1Sc1ccc(C(F)(F)F)cc1 [I-436, 3-(2-methoxyphenyl)-2-{[4-(trifluoromethyl)phenyl]thio}pyridine] | ≤ 0.1 | ≤ 0.1 | 
COc1ccccc1-c1cccnc1Cc1ccc(C(F)(F)F)cc1 [I-439, 3-(2-methoxyphenyl)-2-[4-(trifluoromethyl)benzyl]pyridine] | 0.2 to 0.78 (≈ 0.582 to 2.27 µM) | 0.2 to 0.78 (≈ 0.582 to 2.27 µM) | 
COc1cccc(Cl)c1-c1cccnc1Cc1ccc(C(F)(F)F)nc1 [I-441] | ≤ 0.1 | ≤ 0.1 | 

Further lines, results first:

MIC [1] [µg/mL] | MIC [2] [µg/mL] | nail permeability (Flux) [3] | SMILES
≤ 0.1 | ≤ 0.1 |  | COc1ncccc1-c1cccnc1Oc1ccc(C(F)F)cc1 [I-443]
≤ 0.1 | ≤ 0.1 |  | COc1ccccc1-c1cccnc1Oc1ccc(C(F)F)cc1 [I-444]
≤ 0.1 | ≤ 0.1 |  | COc1ccccc1-c1cccnc1Oc1ccc(OC(F)F)cc1 [I-445]
≤ 0.1 | ≤ 0.1 |  | COc1ncccc1-c1cccnc1Oc1ccc(OC(F)F)cc1 [I-446]
≤ 0.1 | ≤ 0.1 |  | COc1ncccc1-c1cccnc1Oc1ccc(C(C)C)cc1 [I-447]
≤ 0.1 | ≤ 0.1 |  | Cc1cc(Oc2ncccc2-c2cccc3c2OCC3)cnc1C(F)(F)F [I-448]
≤ 0.1 | ≤ 0.1 |  | CCCN(C)c1ncc(Oc2ncccc2-c2cccc3c2OCC3)cn1 [I-449]
≤ 0.1 | ≤ 0.1 |  | COCCN(C)c1ncc(Oc2ncccc2-c2cccc3c2OCC3)cn1 [I-450]
≤ 0.1 | ≤ 0.1 |  | COCC(F)(F)c1ccc(Oc2ncccc2-c2cc(Cl)cnc2OC)cn1 [I-451]
≤ 0.1 | ≤ 0.1 |  | CCCN(C)c1ncc(Oc2ncccc2-c2cc(Cl)cnc2OC)cn1 [I-452]
≤ 0.1 | ≤ 0.1 |  | C=C(C)c1ccc(Oc2ncccc2-c2ccccc2OC)cn1 [I-453]
≤ 0.1 | ≤ 0.1 |  | COc1cc(F)ccc1-c1cccnc1Oc1cnc(Br)c(C)c1 [I-454]
≤ 0.1 | ≤ 0.1 |  | COc1ccccc1-c1cccnc1Oc1ccc(C(F)F)c(C)c1 [I-455]
≤ 0.1 | ≤ 0.1 |  | COc1ncccc1-c1cccnc1Oc1ccc(C(F)F)c(C)c1 [I-456]
≤ 0.1 | ≤ 0.1 |  | COc1ncncc1-c1cccnc1Oc1ccc(C(F)F)c(C)c1 [I-457]
≤ 0.1 | ≤ 0.1 |  | COCC(F)(F)c1ccc(Oc2ncccc2-c2cc(OC)ccc2F)cn1 [I-458]
≤ 0.1 | ≤ 0.1 |  | COc1ncccc1-c1cccnc1Oc1ccc(C)cc1 [I-459]
≤ 0.1 | ≤ 0.1 |  | COCC(F)(F)c1ccc(Oc2ncccc2-c2ccc(OC)nc2OC)cn1 [I-460]
≤ 0.1 | ≤ 0.1 |  | Cc1cc(Oc2ncccc2-c2cccc3ccnn23)cnc1C(F)(F)F [I-461]
≤ 0.1 | ≤ 0.1 |  | Cc1cc(Oc2ncccc2-c2cccc3ccnn23)ccc1C(F)F [I-462]
